We go through 29 compounds from patent US8324390B2, “Tetrazole-substituted anthranilamides as pesticides” (Bayer CropScience AG, priority 2008, dated 2012).

The subject of data set [1] is larvae of the mustard beetle (Phaedon cochleariae). The data set can be described thus: Phaedon test (PHAECO spray treatment). As to conditions: Phaedon cochleariae, in Brassica rapa, foliar, read-out: effect in % (beetle larvae killed).
The subject of data set [2] is green peach aphid (Myzus persicae). Description: Myzus test (MYZUPE spray treatment). Type of data set: in vivo. As to conditions: Myzus persicae, foliar, read-out: effect in % (aphids killed). The source says:
Solvent: 78 parts by weight of acetone
(§1) Solvent: 78.0 parts by weight of acetone

The nature of data set [3]: log P determination by HPLC (EEC Directive 79/831 Annex V.A8). It counts as physicochemical. On the procedure:
The measurements were carried out using an Agilent 1100 LC system with a 50*4.6 Zorbax Eclipse C18 1.8 μm column (oven temperature 55° C., flow rate 2.0 ml/min).
The following mobile phases were used:
Mobile phase A: acetonitrile+1000 μl of formic acid/l
Mobile phase B: Millipore water+900 μl of formic acid/l

The test system of data set [4] is caterpillars of the armyworm (Spodoptera frugiperda). The data set can be described thus: Spodoptera frugiperda test (SPODFR spray treatment). Type of data set: in vivo. Conditions: Spodoptera frugiperda, foliar, read-out: effect in % (caterpillars killed).
From the text: as §1

Where [5] appears, read: application rate 100 g/ha, Chinese cabbage leaf discs.
Where [6] appears, read: application rate 100 g/ha, maize leaf discs.
[7] abbreviates: reversed-phase HPLC, Zorbax Eclipse C18 column, determined by HPLC according to EEC Directive 79/831 Annex V.A8, read-out: log P.

Like-named read-outs stand apart in the source and are kept apart here.

For the compound `Cc1cc(C#N)cc(C(N)=O)c1NC(=O)c1cc(Cn2nnc(C(F)(F)F)n2)nn1-c1ncccc1C(F)(F)F` [Example 236], the pest or weed control at 100 g/ha in data set [1], in data set [2] (setting [5]) and in data set [4] (setting [6]) was at least 80% in each case. The chromatographic logP in data set [3] (reversed-phase HPLC, Zorbax Eclipse C18 column, by HPLC according to EEC Directive 79/831 Annex V.A8, read-out: log P) worked out at 2.67.
As to `NC(=O)c1cc(Cl)cc(Cl)c1NC(=O)c1cc(Cn2nnc(C(F)F)n2)nn1-c1ncccc1Cl` [Example 305], the pest or weed control at 100 g/ha in data set [1], in data set [2] (in Brassica rapa) and in data set [4] (in Zea mays) was at least 80% in each case. This compound gave a chromatographic logP in data set [3] (log P) of 2.31.
On to `Cc1cc(C#N)cc(C(=O)NC2CCC2)c1NC(=O)c1cc(Cn2nnc(C(F)(F)F)n2)nn1-c1ncccc1Cl` [Example 24], for which the pest or weed control at 100 g/ha in data set [1], in data set [2] (in Brassica rapa) and in data set [4] (in Zea mays) was at least 80% throughout. For the same compound, the chromatographic logP in data set [3] (log P) is 3.18.
Turning to `CCC(C)NC(=O)c1cc(C#N)cc(C)c1NC(=O)c1cc(Cn2nnc(C(F)(F)F)n2)nn1-c1ccccc1Cl` (centres unmarked) [Example 530], the pest or weed control at 100 g/ha in data set [1], in data set [2] (setting [5]) and in data set [4] (setting [6]) was at least 80% throughout. Also, the chromatographic logP in data set [3] (setting [7]) was determined as 3.81.
`CC(C)(C)NC(=O)c1cc(Cl)cc(Cl)c1NC(=O)c1cc(Cn2nnnc2C(F)F)nn1-c1ncccc1Cl` [Example 471]: the pest or weed control at 100 g/ha in data set [1], in data set [2] (in Brassica rapa) and in data set [4] (in Zea mays) was at least 80% throughout. The same compound returned a chromatographic logP in data set [3] (log P) of 3.05.
With `Cc1cc(C#N)cc(C(=O)N[C@@H]2C[C@H]2CO)c1NC(=O)c1cc(Cn2nnc(C(F)(F)F)n2)nn1-c1ncccc1Cl` [Example 76], the pest or weed control at 100 g/ha in data set [1], in data set [2] (in Brassica rapa) and in data set [4] (in Zea mays) was at least 80% in each case. In data set [3] (log P), the chromatographic logP turned out to be 2.39.
In the case of `Cc1cc(C#N)cc(C(N)=O)c1NC(=O)c1cc(Cn2nnc(C(F)(F)F)n2)nn1-c1ncccc1Cl` [Example 17], the pest or weed control at 100 g/ha in data set [1], in data set [2] (in Brassica rapa) and in data set [4] (in Zea mays) was at least 80% in each case. For the same compound, the chromatographic logP in data set [3] (log P) worked out at 2.45.
`Cc1cc(Br)cc(C(=O)NC(C)(C)C)c1NC(=O)c1cc(Cn2nnc(C(F)F)n2)nn1-c1ncccc1Cl` [Example 309]: the pest or weed control at 100 g/ha in data set [1], in data set [2] (in Brassica rapa) and in data set [4] (in Zea mays) was at least 80% throughout. In data set [3] (log P), this compound registered a chromatographic logP of 3.36.
Turning to `Cc1cc(Br)cc(C(N)=O)c1NC(=O)c1cc(Cn2nnc(C(F)(F)F)n2)nn1-c1ncccc1Cl` [Example 44], the pest or weed control at 100 g/ha in data set [1], in data set [2] (in Brassica rapa) and in data set [4] (in Zea mays) was at least 80% in each case. Also, the chromatographic logP in data set [3] (log P) is 2.81.
For the compound `CCNC(=O)c1cc(C#N)cc(C)c1NC(=O)c1cc(Cn2nnnc2C(F)(F)F)nn1-c1ccccc1Cl` [Example 492], the pest or weed control at 100 g/ha in data set [1], in data set [2] (setting [5]) and in data set [4] (setting [6]) was at least 80% throughout. For the same compound, in data set [3] (setting [7]), the chromatographic logP came out at 3.01.
With `Cc1cc(F)cc(C(=O)NC(C)C)c1NC(=O)c1cc(Cn2nnnc2C(F)(F)F)nn1-c1ncccc1Cl` [Example 168], the pest or weed control at 100 g/ha in data set [1], in data set [2] (in Brassica rapa) and in data set [4] (in Zea mays) was at least 80% in each case. In data set [3] (log P), this compound gave a chromatographic logP of 2.76.
For `Cc1cc(C#N)cc(C(=O)NC(C)(C)C)c1NC(=O)c1cc(Cn2nnc(C(F)(F)F)n2)nn1-c1ccccc1` [Example 428], the pest or weed control at 100 g/ha in data set [1], in data set [2] (setting [5]) and in data set [4] (setting [6]) was at least 80% each time. Further, the chromatographic logP in data set [3] (setting [7]) was 3.72.
Regarding `CNC(=O)c1cc(C#N)cc(C)c1NC(=O)c1cc(Cn2nnc(C(F)(F)F)n2)nn1-c1c(F)cccc1Cl` [Example 529], the pest or weed control at 100 g/ha in data set [1], in data set [2] (setting [5]) and in data set [4] (setting [6]) was at least 80% each time. For the same compound, in data set [3] (setting [7]), the chromatographic logP worked out at 3.13.
As for `COCC(C)NC(=O)c1cc(C#N)cc(C)c1NC(=O)c1cc(Cn2nnc(C(F)(F)F)n2)nn1-c1ncccc1Cl` (centres unmarked) [Example 98], the pest or weed control at 100 g/ha in data set [1], in data set [2] (in Brassica rapa) and in data set [4] (in Zea mays) was at least 80% in each case. The chromatographic logP in data set [3] (log P) turned out to be 2.95.
Consider `Cc1cc(Br)cc(C(=O)NC(C)C)c1NC(=O)c1cc(Cn2nnnc2C(F)(F)F)nn1-c1ncccc1C(F)(F)F` [Example 459], for which the pest or weed control at 100 g/ha in data set [1], in data set [2] (setting [5]) and in data set [4] (setting [6]) was at least 80% each time. In addition, the chromatographic logP in data set [3] (setting [7]) was found to be 3.29.
`CNC(=O)c1cc(Cl)cc(C)c1NC(=O)c1cc(Cn2nnnc2C(F)(F)F)nn1-c1ncccc1Cl` [Example 161]: the pest or weed control at 100 g/ha in data set [1], in data set [2] (in Brassica rapa) and in data set [4] (in Zea mays) was at least 80% each time. This compound also registered a chromatographic logP in data set [3] (log P) of 2.63.
Consider `Cc1cc(Cl)cc(C(=O)NC(C)(C)C)c1NC(=O)c1cc(Cn2nnnc2C(F)F)nn1-c1ncccc1Cl` [Example 475], for which the pest or weed control at 100 g/ha in data set [1], in data set [2] (in Brassica rapa) and in data set [4] (in Zea mays) was at least 80% in each case. The chromatographic logP in data set [3] (log P) turned out to be 3.09.
For `Cc1cc(C#N)cc(C(=O)NC(C)C)c1NC(=O)c1cc(Cn2nnc(C(F)(F)C(F)(F)F)n2)nn1-c1ncccc1Br` [Example 423], the pest or weed control at 100 g/ha in data set [1], in data set [2] (setting [5]) and in data set [4] (setting [6]) was at least 80% in each case. Also, the chromatographic logP in data set [3] (setting [7]) was found to be 3.46.
Consider `Cc1cc(Cl)cc(C(=O)NC(C)C2CC2)c1NC(=O)c1cc(Cn2nnnc2C(F)F)nn1-c1ncccc1Cl` (centres unmarked) [Example 460], for which the pest or weed control at 100 g/ha in data set [1] and in data set [4] (in Zea mays) was at least 80% in each case. In data set [2] (in Brassica rapa), the pest or weed control at 20 g/ha is at least 80%. This compound gave a chromatographic logP in data set [3] (log P) of 3.07.
Take `C#CCNC(=O)c1cc(C#N)cc(C)c1NC(=O)c1cc(Cn2nnc(C(F)(F)F)n2)nn1-c1ncccc1Cl` [Example 96]: the pest or weed control at 100 g/ha in data set [1], in data set [2] (in Brassica rapa) and in data set [4] (in Zea mays) was at least 80% throughout. The chromatographic logP in data set [3] (log P) was found to be 2.9.
With `CSC[C@H](C)NC(=O)c1cc(I)cc(C)c1NC(=O)c1cc(Cn2nnc(C(F)(F)F)n2)nn1-c1ncccc1Cl` [Example 74], the pest or weed control at 100 g/ha in data set [1], in data set [2] (in Brassica rapa) and in data set [4] (in Zea mays) was at least 80% in each case. In data set [3] (log P), this compound gave a chromatographic logP of 3.9.
On to `Cc1cc(F)cc(C(=O)NCC#N)c1NC(=O)c1cc(Cn2nnc(C(F)(F)F)n2)nn1-c1ncccc1Cl` [Example 53], for which the pest or weed control at 100 g/ha in data set [1], in data set [2] (in Brassica rapa) and in data set [4] (in Zea mays) was at least 80% throughout. This compound also registered a chromatographic logP in data set [3] (log P) of 2.67.
In the case of `CNC(=O)c1cc(C#N)cc(C)c1NC(=O)c1cc(Cn2nnc(C(F)(C(F)(F)F)C(F)(F)F)n2)nn1-c1ncccc1Cl` [Example 367], the pest or weed control at 100 g/ha in data set [1], in data set [2] (in Brassica rapa) and in data set [4] (in Zea mays) was at least 80% in each case. The compound further came in with a chromatographic logP in data set [3] (log P) of 3.35.
For the compound `Cc1cc(C#N)cc(C(=O)NCC2CC2)c1NC(=O)c1cc(Cn2nnnc2C(F)(F)F)nn1-c1ccccc1Cl` [Example 526], the pest or weed control at 100 g/ha in data set [1], in data set [2] (setting [5]) and in data set [4] (setting [6]) was at least 80% in each case. Also, the chromatographic logP in data set [3] (setting [7]) is 3.25.
For `Cc1cc(Cl)cc(C(=O)NC(C)C)c1NC(=O)c1cc(Cn2nnc(C(F)(F)F)n2)nn1-c1ccccc1Cl` [Example 427], the pest or weed control at 100 g/ha in data set [1], in data set [2] (setting [5]) and in data set [4] (setting [6]) was at least 80% in each case. Moreover, the chromatographic logP in data set [3] (setting [7]) stood at 3.93.
With `Cc1cc(C#N)cc(C(=O)NC(C)C)c1NC(=O)c1cc(Cn2nnc(C(F)F)n2)nn1-c1ncccc1Cl` [Example 266], the pest or weed control at 100 g/ha in data set [1], in data set [2] (in Brassica rapa) and in data set [4] (in Zea mays) was at least 80% each time. Besides, in data set [3] (log P), the chromatographic logP worked out at 2.58.
With `Cc1cc(Cl)cc(C(N)=O)c1NC(=O)c1cc(Cn2nnc(C(F)(C(F)(F)F)C(F)(F)F)n2)nn1-c1ncccc1Cl` [Example 360], the pest or weed control at 100 g/ha in data set [1], in data set [2] (in Brassica rapa) and in data set [4] (in Zea mays) was at least 80% in each case. The compound also showed a chromatographic logP in data set [3] (log P) of 3.46.
Turning to `Cc1cc(I)cc(C(=O)NCC#N)c1NC(=O)c1cc(Cn2nnc(C(F)(F)F)n2)nn1-c1ncccc1Br` [Example 412], the pest or weed control at 100 g/ha in data set [1], in data set [2] (setting [5]) and in data set [4] (setting [6]) was at least 80% each time. For the same compound, the chromatographic logP in data set [3] (setting [7]) came out at 3.16.
`Cc1cc(C#N)cc(C(=O)NC2CCC2)c1NC(=O)c1cc(Cn2nnnc2C(F)(F)F)nn1-c1ncccc1Cl` [Example 186]: the pest or weed control at 100 g/ha in data set [1], in data set [2] (in Brassica rapa) and in data set [4] (in Zea mays) was at least 80% in each case. Further, the chromatographic logP in data set [3] (log P) amounted to 2.83.
